Results on 13 compounds are retold here after patent US11014904B2, “1,2,4-triazine-3-amine derivative, preparation method therefor, and use thereof in medicine” (Jiangsu Hengrui Medicine Co., Ltd., priority 2017, dated 2021).

As a reminder, the IC50 is the concentration that inhibits the measured activity by half. A higher IC50 goes with weaker potency in that assay.

Test [1] deals with T1, adenosine A2a receptor (A2aR) (Homo sapiens, UniProt P29274).
T1 construct: expressed in transfected cells; host or cells: CHO-K1
T1 sequence (P29274 whole entry): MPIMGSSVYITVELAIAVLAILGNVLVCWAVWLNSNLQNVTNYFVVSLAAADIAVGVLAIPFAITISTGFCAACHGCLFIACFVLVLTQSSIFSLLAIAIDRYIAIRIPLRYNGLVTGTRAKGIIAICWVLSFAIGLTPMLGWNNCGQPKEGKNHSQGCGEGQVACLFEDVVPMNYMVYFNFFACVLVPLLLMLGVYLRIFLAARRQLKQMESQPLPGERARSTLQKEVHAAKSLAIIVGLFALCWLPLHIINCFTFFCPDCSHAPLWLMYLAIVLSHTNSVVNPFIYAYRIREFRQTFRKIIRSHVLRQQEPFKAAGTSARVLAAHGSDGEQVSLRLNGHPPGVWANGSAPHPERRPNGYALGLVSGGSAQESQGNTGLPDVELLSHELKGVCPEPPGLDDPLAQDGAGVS
Put plainly: Inhibition of the adenosine A2a receptor cAMP signaling pathway in CHO-K1/A2aR cells (HTRF). The conditions noted are these: for IC50: CHO-K1/A2aR cells, cAMP, Table 1. In kind it is cell-based. From the text:
(§1) Determination of the inhibition activity of the compounds of the present invention on the adenosine A2a receptor (A2aR) cAMP signaling pathway, the adenosine A2b receptor (A2bR) cAMP signaling pathway, the adenosine A1 receptor (A1R) cAMP signaling pathway and the adenosine A3 receptor (A3R) cAMP signaling pathway.
(§2) The inhibition activity of the compounds of the present invention on the adenosine A2a receptor (A2aR) cAMP signaling pathway, the adenosine A2b receptor cAMP signaling pathway, the adenosine A1 receptor cAMP signaling pathway and the adenosine A3 receptor cAMP signaling pathway was determined by the following method. The experimental method is briefly described as follows:
2.1 Adenosine A2a receptor
CHO-K1/A2aR cells were cultured in DMEM/F12 medium containing 10% fetal bovine serum and 800 μg/ml bleomycin. The cells were digested with the cell separation buffer during the experiment. The cells were resuspended in the balanced salt buffer containing 20 mM HEPES and 0.1% bovine serum albumin and counted, and the cell density was adjusted to 10^6 cells/ml. In the 384-well plate, each well was added with 5 μl of cell suspension, and 2.5 μl of test compound (4× concentration) formulated with the balanced salt buffer containing 20 mM HEPES, 0.1% bovine serum albumin, 54 μM rolipram and 2.7 U/ml adenosine deaminase, and the plate was incubated at room temperature for 30 minutes. Each well was then added with 2.5 μl of […] (4× concentration) formulated with the balanced salt buffer containing 20 mM HEPES, 0.1% bovine serum albumin, 54 μM rolipram and 2.7 U/ml adenosine deaminase, and the plate was incubated at room temperature for 30 minutes. The final concentrations of the compounds were: 10000, 2000, 400, 80, 16, 3.2, 0.64, 0.128, 0.0256, 0.00512, and 0.001024 nM. The final concentration of […] was 20 nM. Intracellular cAMP concentration was detected with the cAMP dynamic 2 kit. cAMP-d2 and Anti-cAMP-Eu-Cryptate were diluted respectively with the cAMP lysis buffer at a ratio of 1:4. Each well was added with 5 μl of diluted cAMP-d2, followed by addition of 5 μl of diluted Anti-cAMP-Eu-Cryptate, and the plate was incubated at room temperature in the dark for 1 hour. The HTRF signal values were read by the PHERAstar multi-function microplate reader.
(TR-FRET usually uses a lanthanide donor and a delayed reading to cut background.)

The target of test [2] is T2, adenosine A1 receptor (A1R) (Homo sapiens, UniProt P30542).
T2 construct: expressed in transfected cells; host or cells: CHO-K1
T2 sequence (P30542 1-326): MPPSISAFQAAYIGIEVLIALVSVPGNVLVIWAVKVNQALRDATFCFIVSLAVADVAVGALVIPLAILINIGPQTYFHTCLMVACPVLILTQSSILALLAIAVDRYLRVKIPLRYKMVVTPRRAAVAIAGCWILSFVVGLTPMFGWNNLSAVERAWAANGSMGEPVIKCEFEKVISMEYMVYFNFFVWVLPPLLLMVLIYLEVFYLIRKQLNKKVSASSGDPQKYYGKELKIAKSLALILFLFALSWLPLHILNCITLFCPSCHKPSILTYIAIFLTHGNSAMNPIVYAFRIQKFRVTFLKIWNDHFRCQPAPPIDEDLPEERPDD
The test can be described thus: Inhibition of the adenosine A1 receptor cAMP signaling pathway in CHO-K1/A1R cells (HTRF). In kind it is cell-based. The conditions noted are these: for IC50: CHO-K1/A1R cells, cAMP, forskolin 10 μM, CPA 10 nM; for IC50 ratio (A1R/A2aR): selectivity A1R over A2aR.
From the text: as §1, §2
2.3 Adenosine A1 Receptor
CHO-K1/A1R cells were cultured in DMEM/F12 medium containing 10% fetal bovine serum and 1 mg/ml G418. The cells were digested with the cell separation buffer during the experiment. The cells were then resuspended in the balanced salt buffer containing 20 mM HEPES and 0.1% bovine serum albumin and counted, and the cell density was adjusted to 5×10^5 cells/ml. In the 384-well plate, each well was added with 12.5 μl of cell suspension, and 6.25 μl of test compound (4× concentration) formulated with the balanced salt buffer containing 20 mM HEPES, 0.1% bovine serum albumin, 54 μM rolipram and 2.7 U/ml adenosine deaminase, and the plate was incubated at room temperature for 30 minutes. Each well was then added with 6.25 μl of forskolin and N6-cyclopentyladenosine (4× concentration) formulated with the balanced salt buffer containing 20 mM HEPES, 0.1% bovine serum albumin, 54 μM rolipram and 2.7 U/ml adenosine deaminase, and the plate was incubated at room temperature for 30 minutes. The final concentrations of the compounds were: 100000, 10000, 1000, 100, 10, 1, 0.1 and 0 nM. The final concentrations of forskolin was 10 μM. The final concentrations of CPA was 10 nM. Intracellular cAMP concentration was detected with the cAMP dynamic 2 kit. cAMP-d2 and Anti-cAMP-Eu-Cryptate were diluted respectively with the cAMP lysis buffer at a ratio of 1:4. Each well was added with 12.5 μl of diluted cAMP-d2, followed by addition of 12.5 μl of diluted Anti-cAMP-Eu-Cryptate, and the plate was incubated at room temperature in the dark for 1 hour. The HTRF signal values were read by the PHERAstar multi-function microplate reader.

Turning to `Nc1nnc(-c2cc(F)c3ncccc3c2)c(-c2ccccc2)n1` [Example 2, 6-(8-Fluoroquinolin-6-yl)-5-phenyl-1,2,4-triazin-3-amine], in test [1] (NECA 20 nM), 0.6 nM corresponded to half-maximal inhibition (IC50). Also, in test [2], the IC50 is 133 nM and the “IC50 ratio (A1R/A2aR)” value is 221.

Turning to `Nc1nnc(-c2ccc3ncccc3c2)c(-c2ccccc2)n1` [Example 3, 5-Phenyl-6-(quinolin-6-yl)-1,2,4-triazin-3-amine], in test [1] (NECA 20 nM), it took 0.7 nM to reach half-maximal inhibition (IC50). Moreover, the “difference in inhibition activity on the adenosine A2a receptor versus Comparative Example 1” value in test [1] (compared with Comparative Example 1) is 225 times. In test [2], half-maximal inhibition (IC50) required 97 nM and the “IC50 ratio (A1R/A2aR)” value was 139.

Take `Cc1ncnc2ccc(-c3nnc(N)nc3-c3ccccc3)cc12` [Example 15, 6-(4-Methylquinazolin-6-yl)-5-phenyl-1,2,4-triazin-3-amine]: the 50% inhibitory concentration (IC50) in test [1] (NECA 20 nM) is 0.1 nM; in test [2], 248 nM. For the same compound, the “IC50 ratio (A1R/A2aR)” value in test [2] is recorded as 2484.

For the compound `Cc1ccnc2c(F)cc(-c3nnc(N)nc3-c3ccccc3)cc12` [Example 16, 6-(8-Fluoro-4-methylquinolin-6-yl)-5-phenyl-1,2,4-triazin-3-amine], inhibition in test [1] (NECA 20 nM) was half-maximal at 0.2 nM (IC50). For the same compound, in test [2], the IC50 stood at 161 nM and the “IC50 ratio (A1R/A2aR)” value stood at 803.

Take `Cc1ccnc2ccc(-c3nnc(N)nc3-c3ccccc3F)cc12` [Example 17, 5-(2-Fluorophenyl)-6-(4-methylquinolin-6-yl)-1,2,4-triazin-3-amine]: the IC50 in test [1] (NECA 20 nM) came out at 0.5 nM. Moreover, in test [2], half-maximal inhibition (IC50) required 1350 nM and the “IC50 ratio (A1R/A2aR)” value came out at 2698.

For `Cc1ccnc2ccc(-c3nnc(N)nc3-c3ccc(F)cc3)cc12` [Example 18, 5-(4-Fluorophenyl)-6-(4-methylquinolin-6-yl)-1,2,4-triazin-3-amine], in test [1] (NECA 20 nM), the half-maximal inhibitory concentration (IC50) came to 0.2 nM. In test [2], the IC50 was 190 nM and the “IC50 ratio (A1R/A2aR)” value was determined as 948.

As for `Cc1ncnc2ccc(-c3nnc(N)nc3-c3ccc(F)cc3)cc12` [Example 19, 5-(4-Fluorophenyl)-6-(4-methylquinazolin-6-yl)-1,2,4-triazin-3-amine], the IC50 in test [1] (20 nM) was 0.4 nM. Further, in test [2], the IC50 is 1420 nM and the “IC50 ratio (A1R/A2aR)” value was 3557.

`Cc1ccnc2c(F)cc(-c3nnc(N)nc3-c3ccc(F)cc3)cc12` [Example 20, 6-(8-Fluoro-4-methylquinolin-6-yl)-5-(4-fluorophenyl)-1,2,4-triazin-3-amine] came in with an IC50 in test [1] (NECA 20 nM) of 1.5 nM. Also, in test [2], the IC50 was 617 nM and the “IC50 ratio (A1R/A2aR)” value is 411.

Compound `[2H]C([2H])([2H])c1ccnc2ccc(-c3nnc(N)nc3-c3ccc(F)cc3)cc12` [Example 22, 5-(4-Fluorophenyl)-6-[4-(trideuteromethyl)-6-quinolinyl]-1,2,4-triazin-3-amine] had an IC50 in test [1] (NECA 20 nM) of 0.3 nM. For the same compound, in test [2], the IC50 was determined as 100 nM and the “IC50 ratio (A1R/A2aR)” value turned out to be 334.

Turning to `Cc1ccnc2c(F)cc(-c3nnc(N)nc3-c3ccccc3F)cc12` [Example 31, 6-(8-Fluoro-4-methylquinolin-6-yl)-5-(2-fluorophenyl)-1,2,4-triazin-3-amine], the IC50 in test [1] (NECA 20 nM) came to 3.8 nM. In test [2], the half-maximal inhibitory concentration (IC50) turned out to be 1640 nM and the “IC50 ratio (A1R/A2aR)” value was determined as 431.

For `CCc1ccnc2ccc(-c3nnc(N)nc3-c3ccc(F)cc3)cc12` [Example 44, 6-(4-Ethylquinolin-6-yl)-5-(4-fluorophenyl)-1,2,4-triazin-3-amine], the results for the half-inhibitory concentration (IC50) in test [1] (NECA 20 nM) and in test [2] were 0.8 nM and 646 nM, respectively. In addition, the “IC50 ratio (A1R/A2aR)” value in test [2] was found to be 807.

The compound `Cc1ncnc2c(F)cc(-c3nnc(N)nc3-c3ccccc3)cc12` [Example 45, 6-(8-Fluoro-4-methylquinazolin-6-yl)-5-phenyl-1,2,4-triazin-3-amine] showed an IC50 in test [1] (NECA 20 nM) of 1.2 nM. Also, in test [2], the IC50 turned out to be 930 nM and the “IC50 ratio (A1R/A2aR)” value came to 775.

Regarding `[2H]C([2H])([2H])c1ncnc2ccc(-c3nnc(N)nc3-c3ccc(F)cc3)cc12` [Example 52, 5-(4-Fluorophenyl)-6-(4-(methyl-d3)quinazolin-6-yl)-1,2,4-triazin-3-amine], 0.9 nM corresponded to half-maximal inhibition in test [1] (20 nM) (IC50). For the same compound, in test [2], the IC50 was found to be 876 nM and the “IC50 ratio (A1R/A2aR)” value came out at 973.
